Data from patent US20260374739A1, “SMALL MOLECULAR WEIGHT CHEMICAL COMPOUND TO ANTAGONIZE EPH-EPHRIN TETRAMERIZATION AND INHIBIT BIDIRECTIONAL SIGNALING” (THE BOARD OF REGENTS OF THE UNIVERSITY OF TEXAS SYSTEM, priority 2022, published 2026).
Values joined by “and” are separate entries in the source; they are usually repeats but may differ in a detail not shown here. Equal entries are not always repeated. “Also recorded” adds a separate entry of the source. Marks after values point to notes of the source that are not given here.

Key:
EphrinB2-EphB2 [1] = target: T1, EphrinB2-EphB2 (Homo sapiens, UniProt P29323); assay: Octet tetramerization inhibition, immobilized human EphrinB2 binding to 50 nM soluble human EphB2
T1 construct: soluble human EphB1-His, EphB2-His, and EphB4-His ectodomains; commercially available human EphrinB1-Fc (EB1), EphrinB2-Fc (EB2), and EphrinB3-Fc (EB3) ectodomain proteins; purchased
T1 sequence (P29323 19-543 limits assumed): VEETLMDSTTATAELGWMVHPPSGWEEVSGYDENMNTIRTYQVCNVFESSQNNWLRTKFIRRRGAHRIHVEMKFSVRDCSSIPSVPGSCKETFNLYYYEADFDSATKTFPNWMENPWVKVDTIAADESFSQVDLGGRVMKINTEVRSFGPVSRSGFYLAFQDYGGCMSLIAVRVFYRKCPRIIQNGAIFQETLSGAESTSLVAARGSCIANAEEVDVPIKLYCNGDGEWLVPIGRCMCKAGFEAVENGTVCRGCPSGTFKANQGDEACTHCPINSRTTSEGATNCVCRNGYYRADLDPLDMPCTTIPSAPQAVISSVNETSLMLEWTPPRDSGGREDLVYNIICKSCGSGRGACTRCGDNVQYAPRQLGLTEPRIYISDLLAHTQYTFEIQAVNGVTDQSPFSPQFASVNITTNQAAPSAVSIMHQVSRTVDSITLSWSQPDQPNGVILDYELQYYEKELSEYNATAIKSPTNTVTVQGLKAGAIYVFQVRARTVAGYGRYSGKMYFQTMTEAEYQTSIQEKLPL

EphrinB2-EphB4 = target: T2, EphrinB2-EphB4 (Homo sapiens, UniProt P54760); assay: Octet 80 sec association/500 sec dissociation, immobilized human EphrinB2-Fc binding to soluble human EphB4-His; conditions: for selectivity among EphrinB2-EphB1/B2/B4: 3.2 μM
T2 construct: soluble human EphB1-His, EphB2-His, and EphB4-His ectodomains; commercially available human EphrinB1-Fc (EB1), EphrinB2-Fc (EB2), and EphrinB3-Fc (EB3) ectodomain proteins; purchased
T2 sequence (P54760 16-539 limits assumed): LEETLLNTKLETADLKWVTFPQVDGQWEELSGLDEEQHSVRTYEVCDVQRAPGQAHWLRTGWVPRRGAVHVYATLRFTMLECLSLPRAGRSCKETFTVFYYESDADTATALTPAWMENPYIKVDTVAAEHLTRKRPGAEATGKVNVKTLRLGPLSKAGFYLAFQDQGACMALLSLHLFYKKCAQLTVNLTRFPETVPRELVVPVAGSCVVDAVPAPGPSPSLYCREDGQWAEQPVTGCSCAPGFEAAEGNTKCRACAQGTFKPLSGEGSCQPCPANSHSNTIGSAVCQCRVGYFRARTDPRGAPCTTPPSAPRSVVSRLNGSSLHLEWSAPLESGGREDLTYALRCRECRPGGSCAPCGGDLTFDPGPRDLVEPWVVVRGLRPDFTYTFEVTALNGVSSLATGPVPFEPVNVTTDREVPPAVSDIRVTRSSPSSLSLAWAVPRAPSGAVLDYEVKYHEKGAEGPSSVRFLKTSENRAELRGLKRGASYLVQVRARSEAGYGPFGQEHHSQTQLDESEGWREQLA
Method: (§1) In another experiment, whether certain A20 analogs might have specificity for different Eph receptors was tested. An Octet RED384 system was used to obtain biophysical ON-OFF binding data (association-dissociation) for the three different human EphrinB2-EphB1, EphrinB2-EphB2, and EphrinB2-EphB4 protein-protein interactions and to assess the effect of A20 chemicals on the binding kinetics.
(§2) FIGS. 72A-72C show three example Octet sensorgram response traces for the immobilized human EphrinB2 ectodomain protein binding to soluble forms of the human EphB1, EphB2, and EphB4 ectodomain proteins, in the absence or presence of an A20 chemical (buffer conditions are always PBSTD:PBS with 0.05% Tween-20, 1% DMSO, and +/− indicated chemical). After loading EphrinB2-Fc protein to Octet AHC biosensors, washing, and obtaining stable baseline measurements in the appropriate PBSTD (either with or without indicated chemical), the sensors are placed in its buffer that also contains the indicated soluble EphB protein for the association step (0-80″), and then returned to its buffer for the dissociation step (81″-580″). In each figure (FIGS. 72A-72C), a sensorgram run using 10 μM of the 2×HCl salt form of A20-I is compared to the no compound control run to exemplify the maximum level of reduced response signal typically obtained with a potent A20 chemical.
(§3) Because the response levels during the dissociation step plateau for the EphrinB2-EphB2 and EphrinB2-EphB1 interactions by the first 80″, AUCs were also calculated for run data encompassing the first 160″ of each experiment to account for both the 80″ association data (red asterisks) and the first 80″ of dissociation data (marked by green line and asterisks).
(§4) The selectivity of another A20 analog (a 3×HCL salt form of compound BQPB4) in comparison to previously tested compound, A20-1, was tested as described in Example 27 above.
(§5) Further to the experiments listed above, a series of dose-response experiments were conducted to determine the IC50 of a selected A20 chemical (A20-1) on the kinetics of human EphrinB2 ligand ectodomain protein binding to its cognate human EphB1, EphB2, and EphB4 receptor ectodomain proteins. FIG. 74A-74C are representative sensorgrams showing the effect of 0, 0.1, 0.2, 0.4, 0.8, 1.6, and 3.2 μM, concentrations of the 2×HCl salt of A20-I along with a 10 μM max standard (also A20-1) on three different Ephrin-EphB interactions (e.g., EphB1 in FIG. 74A, EphB2 in FIG. 74B and EphB4 in FIG. 74C). […] Additional IC50 values were determined at specific timepoints, at 75″ into the association step and at 55″ into the dissociation step (135″).
(§6) All absolute and relative IC50 values are provided in the Table 6 below, where absolute are based off the full binding sensorgram traces, and relative are based off of the max control traces.
(§7) In another experiment, the % inhibition for various A20 analog chemicals against the three different EphrinB2-EphB protein interactions was determined. Specifically, the percent inhibition for immobilized human EphrinB2-Fc binding to 25 nM soluble human EphB1-His (FIG. 76A, enlarged in FIG. 76D), EphB2-His (FIG. 76B, enlarged in FIG. 76E), and EphB4-His (FIG. 76C, enlarged in FIG. 76F) with 3511-I, 8009-9255, QTM-Br, A19, A19-NO2, and IM (all at 3.2 μM) was determined.

EphrinB2-EphB1 = target: T3, EphrinB2-EphB1 (Homo sapiens, UniProt P54762); assay: Octet 80 sec association/500 sec dissociation, immobilized human EphrinB2-Fc binding to soluble human EphB1-His; conditions: immobilized human EphrinB2, 25 nM soluble human EphB1
T3 construct: soluble human EphB1-His, EphB2-His, and EphB4-His ectodomains; commercially available human EphrinB1-Fc (EB1), EphrinB2-Fc (EB2), and EphrinB3-Fc (EB3) ectodomain proteins; purchased
T3 sequence (P54762 18-540 limits assumed): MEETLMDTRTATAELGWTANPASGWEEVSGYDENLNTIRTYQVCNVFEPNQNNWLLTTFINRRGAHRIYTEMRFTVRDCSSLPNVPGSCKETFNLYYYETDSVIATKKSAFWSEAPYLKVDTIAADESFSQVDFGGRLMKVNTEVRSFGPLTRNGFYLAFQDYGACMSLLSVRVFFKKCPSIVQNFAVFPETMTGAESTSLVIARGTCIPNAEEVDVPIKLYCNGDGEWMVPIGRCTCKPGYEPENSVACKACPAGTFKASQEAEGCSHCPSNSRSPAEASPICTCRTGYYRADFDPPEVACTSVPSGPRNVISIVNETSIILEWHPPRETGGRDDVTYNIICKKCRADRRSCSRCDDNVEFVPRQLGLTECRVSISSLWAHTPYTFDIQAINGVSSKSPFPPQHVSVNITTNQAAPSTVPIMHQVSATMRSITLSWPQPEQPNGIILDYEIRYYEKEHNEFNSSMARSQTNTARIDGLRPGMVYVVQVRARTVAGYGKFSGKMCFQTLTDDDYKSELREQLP
Method: as §1, §2, §3, §4, §5, §6, §7

EphrinB2-EphB2 [2] = target: T1, EphrinB2-EphB2; assay: Octet 80 sec association/500 sec dissociation, immobilized human EphrinB2-Fc binding to soluble human EphB2-His; conditions: immobilized human EphrinB2, 25 nM soluble human EphB2; for EphB2 Inhibition Percent, Inhibition of Association ONLY: at 3.2 μM and 80 seconds; for EphB2 Inhibition Percent, Inhibition of Association-Dissociation: at 3.2 μM and 580 seconds
Method: as §1, §2, §3, §4, §5, §6, §7

[3] = tetramerization inhibitor IC50 (relative), association step, surmountable tetramer
[4] = Absolute AUC/IC50, Table A, EphrinB2-EphB2
[5] = Absolute Association IC50 (300 sec), Table A, EphrinB2-EphB2
[6] = Absolute Dissociation IC50 (450 sec), Table A, EphrinB2-EphB2
[7] = Relative Association IC50 (300 sec), Table A, EphrinB2-EphB2
[8] = Relative Dissociation IC50 (450 sec), Table A, EphrinB2-EphB2
[9] = Relative AUC/IC50, Table A, EphrinB2-EphB2, compound 7: association only

Row | Compound | IC50 (EphrinB2-EphB2 [1]; [3]) [µM] | disruption of unsurmountable tetramer (EphrinB2-EphB2 [1]; 0.8-3.2 μM, listed as QPB-NO4) | tetramerization inhibitor activity (EphrinB2-EphB2 [1]) | IC50 (EphrinB2-EphB2 [1]; [4]) | IC50 (EphrinB2-EphB2 [1]; [5]) | IC50 (EphrinB2-EphB2 [1]; [6]) | IC50 (EphrinB2-EphB2 [1]; [7]) [µM] | IC50 (EphrinB2-EphB2 [1]; [8]) | IC50 (EphrinB2-EphB2 [1]; [9]) [µM] | selectivity among EphrinB2-EphB1/B2/B4 (EphrinB2-EphB4) | EphB1 Inhibition Percent, Inhibition of Association ONLY (EphrinB2-EphB1; at 3.2 μM and 80 seconds) | EphB1 Inhibition Percent, Inhibition of Association-Dissociation (EphrinB2-EphB1; at 3.2 μM and 580 seconds) | EphB2 Inhibition Percent, Inhibition of Association ONLY (EphrinB2-EphB2 [2]) | EphB2 Inhibition Percent, Inhibition of Association-Dissociation (EphrinB2-EphB2 [2]) | EphB4 Inhibition Percent, Inhibition of Association ONLY (EphrinB2-EphB4; at 3.2 μM and 80 seconds, immobilized human EphrinB2, 25 nM soluble human EphB4) | EphB4 Inhibition Percent, Inhibition of Association-Dissociation (EphrinB2-EphB4; at 3.2 μM and 580 seconds, immobilized human EphrinB2, 25 nM soluble human EphB4)
1 | O=S1(=O)CCN(Cc2cc(I)c(O)c3ncccc23)CC1 [Compound 18, 4-((8-hydroxy-7-iodoquinolin-5-yl)methyl)thiomorpholine 1,1-dioxide] | ~0.8 |  |  |  |  |  |  |  |  |  |  |  |  |  |  | 
2 | O=[N+]([O-])c1ccc(N2CCN(Cc3ccc(O)c4ncccc34)CC2)cc1 [Compound 37, 5-((4-(4-nitrophenyl)piperazin-1-yl)methyl)quinolin-8-ol] | ~1.6 | slight ability to disrupt the unsurmountable tetramer; also recorded: able to inhibit a small amount of the EphrinB2-EphB2 unsurmountable tetramer |  |  |  |  |  |  |  |  |  |  |  |  |  | 
3 | Oc1ccc(CN2CCN(c3ccc(I)cc3)CC2)c2cccnc12 [Compound 31, 5-((4-(4-iodophenyl)piperazin-1-yl)methyl)quinolin-8-ol] |  |  | appeared less potent |  |  |  |  |  |  |  |  |  |  |  |  | 
4 | CC(=O)Nc1ccc(N2CCN(Cc3ccc(O)c4ncccc34)CC2)cc1 [Compound 50, N-(4-(4-((8-hydroxyquinolin-5-yl)methyl)piperazin-1-yl)phenyl)acetamide] | > 3 |  |  | > 3.2 µM | > 3.2 µM | > 3.2 µM | 2.77 | 1.95 µM |  |  |  |  |  |  |  | 
5 | Oc1ccc(CN2CCOCC2)c2cccnc12 [Compound 2, 4-((8-hydroxyquinolin-1-ium-5-yl)methyl)morpholin-4-ium chloride] |  |  |  | > 6.4 µM | > 6.4 µM | > 6.4 µM | 2.09 | 2.75 µM | 2.29 |  |  |  |  |  |  | 
6 | O=C(Cc1ccccc1)Nc1ccc(N2CCN(Cc3cc(Br)c(O)c4ncccc34)CC2)cc1 [Compound 52, N-(4-(4-((7-bromo-8-hydroxyquinolin-5-yl)methyl)piperazin-1-yl)phenyl)-2-phenylacetamide] | > 3 |  |  | > 3.2 µM | > 3.2 µM | > 3.2 µM | 3.31 | > 3.2 µM | > 3.2 | less action toward EphB4 and EphB2 but high specificity for EphB1 |  |  |  |  |  | 
7 | COc1ccc(N2CCN(Cc3cc(Br)c(O)c4ncccc34)CC2)cc1 [Compound 73] |  |  |  | 2.29 µM | 2.51 µM | 1.51 µM | 1.2 | 1.07 µM |  |  |  |  |  |  |  | 
8 | Cc1ccc2c(CN3CCN(c4ccc(Br)cc4)CC3)ccc(O)c2n1 [Compound 60, 5-((4-(4-bromophenyl)piperazin-1-yl)methyl)-2-methylquinolin-8-ol] |  |  | appears to eliminate tetramerization inhibitor activity | > 3.2 µM | > 3.2 µM | > 3.2 µM | > 3.2 | > 3.2 µM | > 3.2 |  |  |  |  |  |  | 
9 | Oc1ccc(CN2CCN(c3ccccc3)CC2)c2cccnc12 [Compound 22, 5-((4-phenylpiperazin-1-yl)methyl)quinolin-8-ol] | ~3 |  |  | > 3.2 µM | > 3.2 µM | > 3.2 µM | 3 |  |  |  |  |  |  |  |  | 
10 | Oc1ccc(CN2CCN(Cc3ccc(Br)cc3)CC2)c2cccnc12 [Compound 43, 5-((4-(4-bromobenzyl)piperazin-1-ium-1-yl)methyl)-8-hydroxyquinolin-1-ium chloride] |  |  |  | 3.09 µM and 3.24 µM | 2.7 µM and 2.75 µM | 2.82 µM and 3.01 µM | 1.95 | 2.34 µM and 2.14 µM | 2.24 |  | 19.9% and 33.5% | 36.5% and 47.3% | 37.8% and 62.3% | 56.3% and 75.4% |  | 
11 | COc1ccccc1N1CCN(Cc2ccc(O)c3ncccc23)CC1 [Compound 69, 5-((4-(2-methoxyphenyl)piperazin-1-yl)methyl)quinolin-8-ol] |  |  |  | > 3.2 µM | > 3.2 µM | > 3.2 µM | 2.19 | 1.7 µM | 2.01 | less action toward EphB4 and EphB2 but high specificity for EphB1 |  |  | 3.6% and 0% | 19.2% and 15.5% | 0*/0*% | 2.2% and 0%
